Test results as given in patent publication US5506102A (priority 1993, dated 1996).

Key:
Assay type in all cases: cell-based
human androgen receptor = biological target: T1, human androgen receptor (Homo sapiens, UniProt P10275); assay: AR transcriptional activity on MMTV-LUC, CV-1 cells, AR alone; details: FIG. 10
T1 sequence (P10275 1-920): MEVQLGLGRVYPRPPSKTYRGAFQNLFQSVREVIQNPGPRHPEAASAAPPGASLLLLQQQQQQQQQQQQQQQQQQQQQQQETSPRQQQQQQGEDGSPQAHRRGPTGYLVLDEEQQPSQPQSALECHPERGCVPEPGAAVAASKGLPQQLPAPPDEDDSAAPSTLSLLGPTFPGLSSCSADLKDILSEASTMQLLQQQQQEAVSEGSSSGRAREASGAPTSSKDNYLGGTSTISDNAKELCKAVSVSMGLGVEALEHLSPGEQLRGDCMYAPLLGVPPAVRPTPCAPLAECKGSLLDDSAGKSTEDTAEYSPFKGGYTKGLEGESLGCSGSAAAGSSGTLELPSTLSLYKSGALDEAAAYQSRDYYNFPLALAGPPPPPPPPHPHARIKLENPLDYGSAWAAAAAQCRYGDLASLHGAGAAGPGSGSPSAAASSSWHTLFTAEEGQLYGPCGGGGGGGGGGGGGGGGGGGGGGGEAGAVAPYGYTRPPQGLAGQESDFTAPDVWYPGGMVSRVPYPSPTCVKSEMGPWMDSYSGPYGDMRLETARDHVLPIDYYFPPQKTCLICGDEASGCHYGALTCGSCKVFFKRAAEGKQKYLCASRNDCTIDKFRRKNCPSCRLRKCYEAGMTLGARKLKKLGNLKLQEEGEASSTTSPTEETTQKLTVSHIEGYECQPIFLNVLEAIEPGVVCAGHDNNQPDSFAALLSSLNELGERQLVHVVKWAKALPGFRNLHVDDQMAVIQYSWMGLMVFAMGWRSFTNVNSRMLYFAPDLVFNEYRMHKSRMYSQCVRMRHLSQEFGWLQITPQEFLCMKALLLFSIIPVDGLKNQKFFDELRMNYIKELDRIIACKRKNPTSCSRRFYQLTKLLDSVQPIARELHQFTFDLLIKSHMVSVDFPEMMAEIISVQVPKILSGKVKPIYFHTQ
Method: FIGS. 10A-10B are a series of graphs showing CV-1 cells that were transiently transfected with an expression vector for the human androgen receptor (pRShAR) alone, or in combination with phPR-A together with 5 µg/ml of the MMTV-LUC reporter and 5 µg/ml of pCH110 as an internal control. […] The relative luciferase activity is calculated by dividing the normalized luciferase value at a given point by that obtained in the absence of transfected receptor or ligand. […] The data are presented as percent (%) activation, where 100% represents the maximal induction achieved by human androgen receptor at 10^ -8 M DHT. The experimental data represents mean values +/- the average deviation from the mean of quadruplicate estimations;
Cells were seeded in 12-well, 96-well or 10 cm tissue culture plates. […] 20 μg of DNA/ml of transfection buffer were used in each transfection reaction. In this mix, the concentration of the luciferase plasmids and that of the internal control plasmid pCH110 (Pharmacia, Inc.), which contains the gene for the β-galactosidase enzyme, remained constant ([…] of each plasmid DNA), while the receptor plasmid concentration varied as indicated for each experiment. […]

human estrogen receptor = assay: ER transcriptional activity on MMTV-ERE-LUC, CV-1 cells, ER co-expressed with PR-A
Method: All values were normalized for transfection efficiency by simultaneous estimation of luciferase and β-galactocidase activities. The relative luciferase activity is calculated by dividing the normalized luciferase value at a given point by that obtained in the absence of transfected receptor or ligand. Data shown represent the mean +/- the average deviation from the mean of triplicate estimations.
Experimental protocols and data calculation are as described in FIG. 11. The experiment detailed above is representative of independent assays (N>3). Data shown represent the mean +/- the average deviation from the mean of triplicate estimations.
Vegeto et al., supra. Cells were plated into 96-well tissue culture plates. The vector DNA was introduced into the CV-1 cells using calcium phosphate coprecipitation as described herein. More specifically, 20 μg of DNA/ml of transfection buffer were used in each transfection. Each transfection mix included 0.5 μg of pRST7hER, 9.5 μg of MMTV-ERE-LUC, 5 μg of pCH110, (which contains the gene for β-galactosidase) as an internal control and 5 μg of PGEM4 DNA as a carrier. Depending on the experiment, 0.1 μg pSVhPR-A or pSVhPR-B and an amount of pSVXV2neo (Dr. Bert O'Malley, Baylor College of Medicine) to bring the total amount of DNA to 20 μg was added. The concentration of pXVhPR-A vector chosen was determined by performing the experiment at several different concentrations of vector, and then using that concentration that was optimal for transcriptional readout. The concentration of pSVhPR-B vector was chosen based upon the amount required to give an identical amount of immunoreactive PR-A and PR-B. After transfections using a Biomek 1000 automated laboratory workstation, the cells were incubated with the precipitate for 6 hours. Cells were washed with PBS and incubated for 40 hours with or without hormones as indicated. Cell extracts were prepared as previously described herein and assayed for luciferase (LUC) and β-galactosidase activities. The Normalized LUC activity was calculated by dividing the raw luciferase (×10^4) units for each point by the β-galactosidase activity [(OD415 nm ×10^5)/time min.] at that point.

[1] = tested on: glucocorticoid receptor (GR); assay: GR transcriptional activity on MMTV-LUC, CV-1 cells, GR co-expressed with PR-B; details: progesterone and dexamethasone, FIG. 5B
Method: Cells were seeded in 12-well, 96-well or 10 cm tissue culture plates. […] 20 μg of DNA/ml of transfection buffer were used in each transfection reaction. In this mix, the concentration of the luciferase plasmids and that of the internal control plasmid pCH110 (Pharmacia, Inc.), which contains the gene for the β-galactosidase enzyme, remained constant ([…] of each plasmid DNA), while the receptor plasmid concentration varied as indicated for each experiment. Different amounts of receptor parental plasmid, pSV2-neo (Dr. Bert O'Malley, Baylor College of Medicine, Houston, Tex.) was included to keep constant the total amount of the SV40 enhancer vectors. pGEM4 plasmid DNA (Promega Biotech, Madison, Wis.) was added to balance the total DNA concentration to 20 g/reaction. For the 96-well plate experiments, transfections were performed on a Biomek 1000 Automated Laboratory Workstation (Beckman Instruments, Fullerton, Calif.).
Cells were seeded 24 hours prior to transfection in the fiat-bottom tissue culture plates ([…]) in phenol red-free DMEM containing 10% FCS. […] Using calcium phosphate co-precipitation, DNA solution was added dropwise with vortexing into an equal volume of 2X HBS pH 6.9 (280 mM NaCl. 50 mM HEPES, 1.5 mM Na2 HPO4) and precipitates were allowed to form for 20 minutes. […]

Row | effect on DHT-induced AR activity (human androgen receptor) | IC50 (human estrogen receptor; 10^-7 M 17-β-estradiol, read-out: half maximal inhibition (IC50) of ER in the presence of hPR-A) [nM] | SMILES | efficacy compared to the pure anti-estrogen ICI-164,384 (human estrogen receptor; PR-A co-expressed, 100% = 10^-7 M 17-β-estradiol + 10^-6 M ICI-164,384, FIG. 12) | effect of PR-B co-expression on GR function [1] | maximal inhibition of ER activation by 17-β-estradiol (human estrogen receptor; 10 nM progesterone, hPR-A co-expressed, 10^-7 M 17β-estradiol, FIG. 11C) [%]
1 | efficient inhibitor of DHT-activated AR | 0.5 | CC#C[C@]1(O)CC[C@H]2[C@@H]3CCC4=CC(=O)CCC4=C3[C@@H](c3ccc(C(C)=O)cc3)C[C@@]21C [ZK112993] | greater than 80% | – | –
2 | – | – | CC(=O)[C@H]1CC[C@H]2[C@@H]3CCC4=CC(=O)CC[C@]4(C)[C@H]3CC[C@]12C [progesterone] | – | minimal effects on GR function | 55
